The EC50 is the concentration at which the effect is half-maximal.

The test system of the first test is Bmi-1 protein. The experiment in a line: Sandwich ELISA Assay (Bmi-1 protein level in HT-1080 cells after compound treatment). It counts as cell-based. The settings on record: Table 1, Bmi-1 sandwich ELISA, read-out: ELISA EC50 value for Bmi-1 protein. An outline of the steps: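 Sandwich ELISA quantified Bmi-1 protein against recombinant standard (125–8000 pg/mL), with lysates captured overnight at 4 °C and signal by HRP/TMB at 450 nm (570 nm reference). Lysates came from HT-1080 cells incubated 40–48 h with test compounds in 0.5% DMSO.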
(ELISA stands for enzyme-linked immunosorbent assay.)
Consider `FC(F)(F)Oc1ccc(Nc2cncc(-c3c(C(F)(F)F)nn4ccccc34)n2)cc1` [compound 63, N-[4-(trifluoromethoxy)phenyl]-6-[2-(trifluoromethyl)pyrazolo[1,5-a]pyridin-3-yl]pyrazin-2-amine], for which the EC50 was 10 to 100 nM. Same read-out and setting: the result for `COCc1nc2ccccc2n1-c1cncc(Nc2ccc(C(F)(F)F)cc2)n1` [compound 65, 6-[2-(methoxymethyl)-1H-benzimidazol-1-yl]-N-[4-(trifluoromethyl)phenyl]pyrazin-2-amine] reads 100 to 3000 nM; that for `OCc1nc2ccccc2n1-c1cncc(Nc2ccc(C(F)(F)F)cc2)n1` [compound 66, [1-(6-{[4-(trifluoromethyl)phenyl]amino}pyrazin-2-yl)-1H-benzimidazol-2-yl]methanol], 100 to 3000 nM. For the compound `CSc1ccc(Nc2cncc(-c3c(C(F)(F)F)nc4ccccn34)n2)cc1` [compound 69, N-[4-(methylsulfanyl)phenyl]-6-[2-(trifluoromethyl)imidazo[1,2-a]pyridin-3-yl]pyrazin-2-amine], the EC50 was in the range of 1 to 10 nM. The same measure, in the same setting: the result for `FC(F)Oc1ccc(Nc2cncc(-c3c(C(F)(F)F)nn4ccccc34)n2)cc1` [compound 72, N-[4-(difluoromethoxy)phenyl]-6-[2-(trifluoromethyl)pyrazolo[1,5-a]pyridin-3-yl]pyrazin-2-amine] reads 1 to 10 nM. Regarding `Cc1nc2ccccc2n1-c1cncc(Nc2ccc(C(F)(F)F)nc2)n1` [compound 73, 6-(2-methyl-1H-benzimidazol-1-yl)-N-[6-(trifluoromethyl)pyridin-3-yl]pyrazin-2-amine], the EC50 was in the range of 10 to 100 nM. For `COc1ccc(Nc2cncc(-c3c(C(F)(F)F)nn4ccccc34)n2)cc1` [compound 74, N-(4-methoxyphenyl)-6-[2-(trifluoromethyl)pyrazolo[1,5-a]pyridin-3-yl]pyrazin-2-amine], the EC50 was < 1 nM. `Cc1ccc(Nc2cncc(-c3c(C(F)(F)F)nn4ccccc34)n2)cc1` [compound 75, N-(4-methylphenyl)-6-[2-(trifluoromethyl)pyrazolo[1,5-a]pyridin-3-yl]pyrazin-2-amine]: the EC50 lay within 1 to 10 nM. Same read-out and setting: the value for `Nc1nc2ccccc2n1-c1cncc(Nc2ccc(C(F)(F)F)cc2)n1` [compound 76, 1-(6-{[4-(trifluoromethyl)phenyl]amino}pyrazin-2-yl)-1H-benzimidazol-2-amine] was 100 to 3000 nM. Consider `COc1nc2ccccc2n1-c1cncc(Nc2ccc(C(F)(F)F)cc2)n1` [compound 77, 6-(2-methoxy-1H-benzimidazol-1-yl)-N-[4-(trifluoromethyl)phenyl]pyrazin-2-amine], for which the EC50 lay within 10 to 100 nM. The same measure, in the same setting: the result for `CC(=O)O[C@@H](C)c1nc2ccccc2n1-c1cncc(Nc2ccc(C(F)(F)F)cc2)n1` [compound 78, (1S)-1-[1-(6-{[4-(trifluoromethyl)phenyl]amino}pyrazin-2-yl)-1H-benzimidazol-2-yl]ethyl acetate] reads 100 to 3000 nM; that for `CCSc1nc2ccccc2n1-c1cncc(Nc2ccc(C(F)(F)F)cc2)n1` [compound 79, 6-[2-(ethylsulfanyl)-1H-benzimidazol-1-yl]-N-[4-(trifluoromethyl)phenyl]pyrazin-2-amine], 10 to 100 nM. `CCCCc1nc2ccccc2n1-c1cncc(Nc2ccc(C(F)(F)F)cc2)n1` [compound 80, 6-(2-butyl-1H-benzimidazol-1-yl)-N-[4-(trifluoromethyl)phenyl]pyrazin-2-amine]: the EC50 fell in the range of 100 to 3000 nM. As to `CCOc1nc2ccccc2n1-c1cncc(Nc2ccc(C(F)(F)F)cc2)n1` [compound 81, 6-(2-ethoxy-1H-benzimidazol-1-yl)-N-[4-(trifluoromethyl)phenyl]pyrazin-2-amine], the EC50 lay in the range of 100 to 3000 nM. Same read-out and setting: the result for `Cc1nc2ncccc2n1-c1cncc(Nc2ccc(C(F)(F)F)cc2)n1` [compound 82, 6-(2-methyl-1H-imidazo[4,5-b]pyridin-1-yl)-N-[4-(trifluoromethyl)phenyl]pyrazin-2-amine] reads 10 to 100 nM; that for `CCc1nc2ncccc2n1-c1cncc(Nc2ccc(C(F)(F)F)cc2)n1` [compound 83, 6-(2-ethyl-1H-imidazo[4,5-b]pyridin-1-yl)-N-[4-(trifluoromethyl)phenyl]pyrazin-2-amine], 10 to 100 nM. On the same count and under the same terms, the value for `Cc1nc2ncccc2n1-c1cncc(Nc2ccc(OC(F)F)cc2)n1` [compound 85, N-[4-(difluoromethoxy)phenyl]-6-(2-methyl-1H-imidazo[4,5-b]pyridin-1-yl)pyrazin-2-amine] was 10 to 100 nM. Same read-out and setting: the result for `COc1ccc(Nc2cncc(-c3cccc4nc(C5CC5)cn34)n2)cc1` [compound 86, 6-(2-cyclopropylimidazo[1,2-a]pyridin-5-yl)-N-(4-methoxyphenyl)pyrazin-2-amine] reads 10 to 100 nM. As for `FC1(F)Oc2ccc(Nc3cncc(-c4cccc5nc(C6CC6)cn45)n3)cc2O1` [compound 88, 6-(2-cyclopropylimidazo[1,2-a]pyridin-5-yl)-N-(2,2-difluoro-1,3-benzodioxol-5-yl)pyrazin-2-amine], the EC50 was in the range of 100 to 3000 nM.

For the compound `FC1(F)Oc2ccc(Nc3cncc(-c4c(C(F)(F)F)nn5ccccc45)n3)cc2O1` [compound 92, N-(2,2-difluoro-1,3-benzodioxol-5-yl)-6-[2-(trifluoromethyl)pyrazolo[1,5-a]pyridin-3-yl]pyrazin-2-amine], the EC50 is 100 to 3000 nM. With `FC(F)(F)c1ccc(Nc2cncc(-c3c(C(F)(F)F)nc4cnccn34)n2)cc1` [compound 93, 6-[2-(trifluoromethyl)imidazo[1,2-a]pyrazin-3-yl]-N-[4-(trifluoromethyl)phenyl]pyrazin-2-amine], the EC50 fell in the range of 10 to 100 nM. In the case of `CCc1nc2ncncc2n1-c1cncc(Nc2ccc(C(F)(F)F)cc2)n1` [compound 94, 6-(8-ethyl-7H-purin-7-yl)-N-[4-(trifluoromethyl)phenyl]pyrazin-2-amine], the 50% effective concentration (EC50) was 100 to 3000 nM.

Consider `Cc1nc2ncccc2n1-c1cncc(Nc2ccc(OC(F)(F)F)cc2)n1` [compound 95, 6-(2-methyl-1H-imidazo[4,5-b]pyridin-1-yl)-N-[4-(trifluoromethoxy)phenyl]pyrazin-2-amine], for which the EC50 was 10 to 100 nM. On the same count and under the same terms, the value for `Cc1cc(Nc2cncc(-c3c(C(F)(F)F)nc4ccccn34)n2)on1` [compound 97, N-(3-methyl-1,2-oxazol-5-yl)-6-[2-(trifluoromethyl)imidazo[1,2-a]pyridin-3-yl]pyrazin-2-amine] was 100 to 3000 nM. Same read-out and setting: the value for `C[C@H](O)c1nc2ccccc2n1-c1cncc(Nc2ccc(C(F)(F)F)cc2)n1` [compound 98, (1S)-1-[1-(6-{[4-(trifluoromethyl)phenyl]amino}pyrazin-2-yl)-1H-benzimidazol-2-yl]ethanol] was 10 to 100 nM. On to `FC(F)(F)Oc1ccc(Nc2cccc(-c3c(C(F)(F)F)nc4ncccn34)n2)cc1` [compound 99, N-[4-(trifluoromethoxy)phenyl]-6-[2-(trifluoromethyl)imidazo[1,2-a]pyrimidin-3-yl]pyridin-2-amine], for which the EC50 lay within 100 to 3000 nM. Still for that read-out and setting: the result for `COc1ccc2nc(C(F)(F)F)c(-c3cccc(Nc4ccc(OC(F)(F)F)cc4)n3)n2c1` [compound 101, 6-[6-methoxy-2-(trifluoromethyl)imidazo[1,2-a]pyridin-3-yl]-N-[4-(trifluoromethoxy)phenyl]pyridin-2-amine] reads 10 to 100 nM.

Turning to `COc1ccc2nc(C(F)(F)F)c(-c3cccc(Nc4ccc(C(F)(F)F)cc4)n3)n2c1` [compound 102, 6-[6-methoxy-2-(trifluoromethyl)imidazo[1,2-a]pyridin-3-yl]-N-[4-(trifluoromethyl)phenyl]pyridin-2-amine], the EC50 was in the range of 10 to 100 nM. Still for that read-out and setting: the value for `COc1ccc2nc(C(F)(F)F)c(-c3cccc(Nc4ccc(OC(F)F)cc4)n3)n2c1` [compound 103, N-[4-(difluoromethoxy)phenyl]-6-[6-methoxy-2-(trifluoromethyl)imidazo[1,2-a]pyridin-3-yl]pyridin-2-amine] was 10 to 100 nM; that for `Cc1nn(C)c(C)c1-c1cncc(Nc2ccc(OC(F)(F)F)cc2)n1` [compound 105, N-[4-(trifluoromethoxy)phenyl]-6-(1,3,5-trimethyl-1H-pyrazol-4-yl)pyrazin-2-amine] was 10 to 100 nM; that for `Cc1nn(C)c(C)c1-c1cncc(Nc2ccc(Br)cc2)n1` [compound 106, N-(4-bromophenyl)-6-(1,3,5-trimethyl-1H-pyrazol-4-yl)pyrazin-2-amine] was < 1 nM. In the case of `FC(F)Oc1ccc(Nc2cccc(-c3c(C(F)(F)F)nc4ncccn34)n2)cc1` [compound 108, N-[4-(difluoromethoxy)phenyl]-6-[2-(trifluoromethyl)imidazo[1,2-a]pyrimidin-3-yl]pyridin-2-amine], the concentration for a half-maximal effect (EC50) lay within 10 to 100 nM. Still for that read-out and setting: the result for `Oc1ccc2nc(C(F)(F)F)c(-c3cccc(Nc4ccc(OC(F)(F)F)cc4)n3)n2c1` [compound 110, 3-(6-{[4-(trifluoromethoxy)phenyl]amino}pyridin-2-yl)-2-(trifluoromethyl)imidazo[1,2-a]pyridin-6-ol] reads 100 to 3000 nM. On the same count and under the same terms, the value for `Oc1ccc2nc(C(F)(F)F)c(-c3cccc(Nc4ccc(C(F)(F)F)cc4)n3)n2c1` [compound 111, 2-(trifluoromethyl)-3-(6-{[4-(trifluoromethyl)phenyl]amino}pyridin-2-yl)imidazo[1,2-a]pyridin-6-ol] was 10 to 100 nM.

The test is the same for the next values; noted with them: read-out: ELISA EC50 value for Bmi-1 protein, Table 1, Bmi-1 sandwich ELISA.
With `FC(F)(F)c1ccc(Nc2cncc(-c3c(C(F)(F)F)nn4ccccc34)n2)cc1` [compound 62, N-[4-(trifluoromethyl)phenyl]-6-[2-(trifluoromethyl)pyrazolo[1,5-a]pyridin-3-yl]pyrazin-2-amine], the concentration for a half-maximal effect (EC50) was in the range of 10 to 100 nM. Regarding `FC(F)Oc1ccc(Nc2cncc(-c3cccc4nc(C5CC5)cn34)n2)cc1` [compound 90, 6-(2-cyclopropylimidazo[1,2-a]pyridin-5-yl)-N-[4-(difluoromethoxy)phenyl]pyrazin-2-amine], the EC50 fell in the range of 10 to 100 nM.

These data come from patent US10584115B2, “Substituted pyridine and pyrazine BMI-1 inhibitors” (PTC Therapeutics, Inc., priority 2013, dated 2020).
